The values that follow come from publication PMC7195466, “A common allosteric mechanism regulates homeostatic inactivation of auxin and gibberellin” (Nature Communications, 2020).

The target in experiment [1] is T1, OsGA2ox3 (GA 2-oxidase 3) (Oryza sativa, UniProt Q8S0S6).
T1 construct: gene GA2OX3; full-length coding region in pGEX6P1, GST tag cut off with PreScission protease, E. coli Rosetta (DE3) pLysS; monomer, homotetramer with GA4
Description: X-ray crystal structure, […] Å. Format: binding. Conditions: Fe(II) absent.

Experiment [2] concerns the target T2, OsGA2ox3 (GA 2-oxidase 3) (Oryza sativa, UniProt Q8S0S6, C194A/K308A/K313A).
T2 construct: gene GA2OX3; full-length coding region in pGEX6P1, GST tag cut off with PreScission protease, E. coli Rosetta (DE3) pLysS; monomer, homotetramer with GA4
Description: GC-SIM-MS of GA34, activity after incubation with GA4. Format: biochemical. Particulars: 3Mu, interface-site mutant; same.

The target of the next experiment is T3, OsGA2ox6 (Oryza sativa, UniProt Q7XP65).
T3 construct: gene GA2OX6; full-length coding region in pGEX6P1 (GST fusion); C20-type; monomer, dimer with GA4
T3 sequence (Q7XP65 1-358): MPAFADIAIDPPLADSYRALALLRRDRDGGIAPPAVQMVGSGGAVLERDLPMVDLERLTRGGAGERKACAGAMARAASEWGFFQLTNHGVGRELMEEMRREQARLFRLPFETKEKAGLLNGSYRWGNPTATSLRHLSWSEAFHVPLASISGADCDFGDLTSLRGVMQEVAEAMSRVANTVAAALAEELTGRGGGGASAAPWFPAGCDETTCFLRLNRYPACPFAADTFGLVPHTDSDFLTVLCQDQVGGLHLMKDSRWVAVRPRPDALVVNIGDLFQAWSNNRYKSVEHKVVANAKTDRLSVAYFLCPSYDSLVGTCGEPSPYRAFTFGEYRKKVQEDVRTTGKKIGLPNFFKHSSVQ
Description: gel filtration, ligand-induced dimerization. Format: binding. Conditions: 10 mM GA4 incubation, 18 h, 25 °C, pH 7.4; interface (allosteric). For orientation: In gel filtration, larger molecules generally elute earlier.

Experiment [3] deals with T4, OsGA2ox3 (GA 2-oxidase 3) (Oryza sativa, UniProt Q8S0S6, K308A).
T4 construct: gene GA2OX3; full-length coding region in pGEX6P1, GST tag cut off with PreScission protease, E. coli Rosetta (DE3) pLysS; monomer, homotetramer with GA4
T4 sequence (Q8S0S6 whole entry K308A): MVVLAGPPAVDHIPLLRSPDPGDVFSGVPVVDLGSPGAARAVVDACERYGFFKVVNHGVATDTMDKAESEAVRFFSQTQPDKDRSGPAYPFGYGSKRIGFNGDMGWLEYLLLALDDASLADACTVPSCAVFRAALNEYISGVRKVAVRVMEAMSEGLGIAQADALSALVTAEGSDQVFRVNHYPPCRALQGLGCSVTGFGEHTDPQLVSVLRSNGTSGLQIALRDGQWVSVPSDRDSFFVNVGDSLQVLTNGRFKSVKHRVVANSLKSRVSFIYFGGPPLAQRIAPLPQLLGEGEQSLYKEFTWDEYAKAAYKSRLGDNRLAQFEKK
Put plainly: GC-SIM-MS of GA34, activity after incubation with GA4. Type of experiment: biochemical. Conditions: interface-site mutant; 2-oxoglutarate, Fe(II), pH 7.9, 30 °C. The procedure:
GC-SIM-MS of GA34, activity after incubation with GA4 on OsGA2ox3 (GA 2-oxidase 3) | a single mutation, such as […] or 3Mu, led to no activation by GA4

Experiment [4] has as its target T5, OsDAO (dioxygenase for auxin oxidation) (Oryza sativa, UniProt Q7XKU5).
T5 construct: gene DAO; full-length coding region in pGEX6P1, GST tag cut off with PreScission protease, E. coli Rosetta (DE3) pLysS; monomer, dimer with IAA
T5 sequence (Q7XKU5 1-300): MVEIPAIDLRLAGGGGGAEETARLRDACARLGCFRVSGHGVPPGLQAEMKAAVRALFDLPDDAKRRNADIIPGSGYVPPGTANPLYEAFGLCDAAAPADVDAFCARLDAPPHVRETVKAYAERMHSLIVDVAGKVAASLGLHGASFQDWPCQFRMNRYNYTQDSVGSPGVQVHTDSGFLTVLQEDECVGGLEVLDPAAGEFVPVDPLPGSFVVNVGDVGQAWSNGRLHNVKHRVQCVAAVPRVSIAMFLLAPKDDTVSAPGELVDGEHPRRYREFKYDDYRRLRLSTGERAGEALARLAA
Put plainly: X-ray crystal structure, […] Å. Type of experiment: binding. Particulars: allosteric, two IAA molecules at the dimer interface; crystallised with 2-oxoglutarate.

Structures are written as SMILES.

T1 sequence (Q8S0S6 whole entry): as the sequence (Q8S0S6 whole entry K308A) above, with A308K counted along it
T2 sequence (Q8S0S6 whole entry C194A/K308A/K313A): as the sequence (Q8S0S6 whole entry K308A) above, with C194A, K313A counted along it

Take `O=C(O)CCC(=O)C(=O)O` [2OG]: in experiment [1] (active site, co-substrate, GA4 present), the “X-ray crystal structure, 2.15 Å” value is “the amino acids interacting with 2OG (R269, S271, and Y183”.
For `C=C1C[C@]23C[C@H]1CC[C@H]2[C@@]12CC[C@H](O)[C@@](C)(C(=O)O1)[C@H]2[C@@H]3C(=O)O` [GA4], the “GC-SIM-MS of GA34, activity after incubation with GA4” value is “no activation of 3Mu occurred at all” in experiment [2] and “a single mutation, such as K308A or 3Mu, led to no activation by GA4” in experiment [3]. Moreover, at OsGA2ox6, the “gel filtration, ligand-induced dimerization” value was “The presence of GA4 induced a new peak of its dimer form”. Also, the “X-ray crystal structure, 2.15 Å” value in experiment [1] (active site and second site (allosteric, subunit interface), 2-oxoglutarate present) was “We crystallized the enzyme with the co-substrates, 2OG and GA4 in the absence Fe(II)”.
`O=C(O)Cc1c[nH]c2ccccc12` [indole-3-acetic acid]: the “X-ray crystal structure, 2.0 Å” value in experiment [4] is “We elucidated the crystal structure of OsDAO complexed with its substrate, IAA”.
